For orientation: AUC means the area under the concentration-time curve, a measure of exposure. Higher therefore signals more exposure. What is called half-life is the time in which the quantity being followed falls by half. The term EC50 denotes the concentration needed to bring the measured effect to its halfway point.

Test system in the first data set: not listed separately
Put plainly: AUC in mice at 5 mg/kg, po. It is filed as ADME, organism-based. Further details: dose 5 mg/kg, route oral. The settings on record: mouse, plasma.
On to `O=S(=O)(c1ccccc1)N(CC(F)(F)F)c1ccc(C(O)(C(F)(F)F)C(F)(F)F)cc1` [T091317], for which the AUC stood at 3420 ng·h/mL.

Test system in a further data set: not listed separately
Nature of the data set: AUC in dog at 5 mg/kg, po. It is filed as ADME, organism-based, Canis lupus familiaris. Set-up: dose 5 mg/kg, route oral. The settings on record: plasma.
In turn, `O=S(=O)(c1ccccc1)N(CC(F)(F)F)c1ccc(C(O)(C(F)(F)F)C(F)(F)F)cc1` [T091317] returned an area under the curve (AUC) of 7300 ng·h/mL.

Test system in another data set: not listed separately
Nature of the data set: AUC in Sprague-Dawley rat at 5 mg/kg, po. It is filed as ADME, organism-based. Set-up: dose 5 mg/kg, route oral. The settings on record: plasma.
Consider `CC(C)CN(c1ccc(C(O)(C(F)(F)F)C(F)(F)F)cc1)S(=O)(=O)c1cccs1`, for which the AUC turned out to be 3200 ng·h/mL.

Consider `O=S(=O)(c1ccccc1)N(CC(F)(F)F)c1ccc(C(O)(C(F)(F)F)C(F)(F)F)cc1` [T091317], for which the AUC worked out at 5920 ng·h/mL.

Test system in another data set: not listed separately
Put plainly: Half life in dog at 5 mg/kg, po. It counts as ADME, organism-based, Canis lupus familiaris. Further details: dose 5 mg/kg, route oral. The settings on record: in vivo.
`O=S(=O)(c1ccccc1)N(CC(F)(F)F)c1ccc(C(O)(C(F)(F)F)C(F)(F)F)cc1` [T091317] showed a half-life of 5.8 h.

Test system in another data set: not listed separately
Nature of the data set: Half life in mice at 5 mg/kg, po. It counts as ADME, organism-based. Set-up: dose 5 mg/kg, route oral. As to conditions: mouse, in vivo.
`O=S(=O)(c1ccccc1)N(CC(F)(F)F)c1ccc(C(O)(C(F)(F)F)C(F)(F)F)cc1` [T091317]: the half-life was 3 h.

In a further data set the target is T1, Oxysterols receptor LXR-alpha (Homo sapiens, UniProt Q13133).
T1 sequence (Q13133 whole entry): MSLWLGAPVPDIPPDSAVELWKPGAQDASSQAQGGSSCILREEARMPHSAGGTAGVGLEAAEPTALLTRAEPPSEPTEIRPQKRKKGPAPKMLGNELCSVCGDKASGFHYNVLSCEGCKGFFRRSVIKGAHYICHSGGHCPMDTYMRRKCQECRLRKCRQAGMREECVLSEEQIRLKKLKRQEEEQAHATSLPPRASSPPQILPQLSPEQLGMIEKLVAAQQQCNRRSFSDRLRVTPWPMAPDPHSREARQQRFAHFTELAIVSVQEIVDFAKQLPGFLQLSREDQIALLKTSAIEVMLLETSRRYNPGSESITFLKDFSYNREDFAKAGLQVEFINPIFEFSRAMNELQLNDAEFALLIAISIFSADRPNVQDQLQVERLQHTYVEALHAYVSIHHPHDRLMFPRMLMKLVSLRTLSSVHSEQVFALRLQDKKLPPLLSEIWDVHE
Nature of the data set: Activity against LXR alpha transiently transfected in HEK293 cells. It counts as cell-based.
Conditions: not given
`CN(c1ccccc1)S(=O)(=O)c1ccc(C(O)(C(F)(F)F)C(F)(F)F)cc1` displayed a concentration giving a half-maximal response (EC50) of 100 nM. For the compound `CN(C(=O)c1ccc(C(O)(C(F)(F)F)C(F)(F)F)cc1)c1ccccc1`, a half-maximal response (EC50) required 200 nM. Regarding `CN(c1ccc(C(O)C(F)(F)F)cc1)S(=O)(=O)c1ccccc1` (stereo unspecified), the EC50 was greater than 5000 nM. On the same count and under the same terms, the result for `CC(C)COC(=O)N(C)c1ccc(C(O)(C(F)(F)F)C(F)(F)F)cc1` reads 100 nM. The same measure, in the same setting: the result for `COC(c1ccc(N(C)S(=O)(=O)c2ccccc2)cc1)(C(F)(F)F)C(F)(F)F` reads 1000 nM; that for `CN(c1cccc(C(O)(C(F)(F)F)C(F)(F)F)c1)S(=O)(=O)c1ccccc1`, 1000 nM. The same measure, in the same setting: the result for `CN(c1ccc(C(O)(C(F)(F)F)C(F)(F)F)c(Cl)c1)S(=O)(=O)c1ccccc1` reads greater than 5000 nM; that for `O=S(=O)(c1ccccc1)N1CCc2cc(C(O)(C(F)(F)F)C(F)(F)F)ccc21`, 50 nM. Compound `CN(c1ccc(C(O)(C(F)(F)F)C(F)(F)F)cc1)S(=O)(=O)c1cccs1` gave an EC50 of 600 nM. The same measure, in the same setting: the result for `CN(c1ccc(C(O)(C(F)(F)F)C(F)(F)F)cc1)S(=O)(=O)c1cccc(S(N)(=O)=O)c1` reads 80 nM; that for `CN(c1ccc(C(O)(C(F)(F)F)C(F)(F)F)cc1)S(=O)(=O)c1cccc(C#N)c1`, 20 nM; that for `CN(c1ccc(C(O)(C(F)(F)F)C(F)(F)F)cc1)S(=O)(=O)c1cccc(-c2ccccc2)c1`, 30 nM. Still for that read-out and setting: the result for `O=S(=O)(c1ccccc1)N(c1ccc(C(O)(C(F)(F)F)C(F)(F)F)cc1)C1CCCC1` reads 8 nM; that for `CN(c1ccc(C(O)(C(F)(F)F)C(F)(F)F)cc1)S(=O)(=O)c1ccc(C#N)cc1`, 2000 nM. `CN(C(=O)c1ccccc1)c1ccc(C(O)(C(F)(F)F)C(F)(F)F)cc1` showed an EC50 of 100 nM.

Compound `CN(c1ccc(C(O)(C(F)(F)F)C(F)(F)F)cc1Cl)S(=O)(=O)c1ccccc1` returned an EC50 of 200 nM. The same measure, in the same setting: the result for `O=S(=O)(c1ccccc1)N1CCCCc2cc(C(O)(C(F)(F)F)C(F)(F)F)ccc21` reads 10 nM. In turn, `CN(Cc1ccc(C(O)(C(F)(F)F)C(F)(F)F)cc1)S(=O)(=O)c1ccccc1` yielded an EC50 of 3000 nM. Still for that read-out and setting: the result for `CC(C)CN(c1ccc(C(O)(C(F)(F)F)C(F)(F)F)cc1)S(=O)(=O)c1cccs1` reads 40 nM; that for `O=S(=O)(c1ccccc1)N1CCCc2cc(C(O)(C(F)(F)F)C(F)(F)F)ccc21`, 30 nM; that for `O=S(=O)(c1ccccc1)N1CCOc2cc(C(O)(C(F)(F)F)C(F)(F)F)ccc21`, 100 nM. On the same count and under the same terms, the result for `O=S(=O)(Nc1ccc(C(O)(C(F)(F)F)C(F)(F)F)cc1)c1ccccc1` reads 4000 nM; that for `CN(c1ccc(C(C)(O)C(F)(F)F)cc1)S(=O)(=O)c1ccccc1` (stereo unspecified), 5000 nM; that for `CN(c1ccc(C(O)(C(F)(F)F)C(F)(F)F)cc1)S(=O)(=O)c1ccccc1C#N`, 700 nM. Still for that read-out and setting: the result for `C[C@H](CC[C@@H]1OC1(C)C)[C@H]1CC[C@H]2[C@@H]3CC=C4C[C@@H](O)CC[C@]4(C)[C@H]3CC[C@]12C` [24(S),25-EPOXYCHOLESTEROL] reads 500 nM.

For the origin of these results see ChEMBL document CHEMBL1146053, “Discovery and optimization of a novel series of liver X receptor-alpha agonists” (Bioorg Med Chem Lett, 2006).
